Test results: patent US20240125703A1, “SYSTEMS AND METHODS FOR Q[…] OBSERVED VISUALIZATION OF FL[…] AGENTS” (Stryker Corporation, priority 2022, published 2024)

Tests used:
[1] = Urine concentration of pudexacianinium in minipigs; format: in vivo, Gottingen minipigs; details: 0.01 mg/kg; over 3 hour observation period
Protocol: A direct translation of the nonclinical pharmacology visualization results in the intended clinical use and dose in humans is considered feasible given the simple elimination route of the dye in both cases (eliminated entirely through renal system) and given the physiologic comparability between porcine and human kidneys. The 0.01 mg/kg dose used in pigs translates to an approximate human equivalent dose of 0.7-0.8 mg/participant. This is consistent with the dose recommendation for the clinical Phase 3 study (1 mg/participant).

ureters [2] = test: Qualitative in vivo ureter visualization in Yorkshire pig (Stryker 1588 AIM System and SPY-PHI open field system); details: 0.01 mg/kg, iv; either imaging system; prior to any dissection
Protocol: In a second qualitative in vivo study, pudexacianinium (0.01 mg/kg, iv) was injected into a healthy female Yorkshire pig and the ureters were visualized using examples of an image guided surgery system 10 of FIG. 1A—a Stryker Corporation 1588 AIM System and a Stryker Corporation SPY-PHI open field system—prior to any dissection.

[3] = In vitro NIR-F of ASP5354 in 96 well plates, microplate reader (excitation 780 nm, emission 820 nm); format: physicochemical; details: 0.01-1000 μg/mL in 96 well plates
Protocol: The following example illustrates using a measure of visual enhancement of the anatomy of interest in a color image (a contrast enhancement factor), generated according to method 100, as an alternative to biological samples for bioequivalence and bioavailability assessments of a fluorescence imaging agent, in particular the fluorescence dye ASP5354 (pudexacianinium). In this example, two in vitro studies were performed to determine the effect of ASP5354 concentration on near-infrared fluorescence (NIR-F). In the first study, ASP5354 (0.01-1000 μg/mL) was added to 96 well plates, the plates placed in a microplate reader, and subjected to a near-infrared excitation frequency of 780 nm. The emitted NIR-F determined at a wavelength of 820 nm. The fluorescence intensity increased as the concentration of pudexacianinium increased and tended to plateau at concentrations greater than or equal to 100 μg/mL.

ureters [4] = test: In vivo ureter visualization in Gottingen minipigs, NIR-F camera, visual assessment by three clinicians
Protocol: Next, the ability to visualize ureters in vivo was assessed in Gottingen minipigs. The animals were anesthetized, laparotomized and then intravenously injected with pudexacianinium (0.001 or 0.01 mg/kg). Videos of the abdominal cavity were taken using a NIR-F camera and assessed visually by three independent clinicians for up to three hours.

pig ureters ex vivo = test: NIR-F of pudexacianinium instilled in pig ureters ex vivo (PDE-NEO NIR-F imager); details: for NIR-F Intensity: mean, three ureters
Protocol: In the second study, pudexacianinium (0.01-10 μg/mL) was instilled in pig ureters ex vivo and the NIR-F determined using a PDE-NEO NIR-F imager. Here too, the NIR-F intensity increased with increasing concentrations of pudexacianinium with the fluorescence intensity tending to plateau at concentrations equal to or greater than 1 μg/mL, as shown in the table below. Thus, the fluorescence activity of pudexacianinium can be visualized in the lumen of ureters.

ureter(s) = test: Phase 2 dose ranging study, Visualization Review Committee (VRC) assessment of ureter visualization; format: in vivo, human
From the text: The results from the Phase 1 study provided the foundation for Phase 2 study, a randomized open-label, dose ranging study for ureter visualization, using ASP5354 in participants undergoing laparoscopic/minimally invasive colorectal surgery.
The results of the Phase 2 study support the use of pudexacianinium as an intraoperative ureter visualization (surgeon's ability to identify/locate the ureter from the surrounding structures) during the entire abdominopelvic surgical procedure. […] As a result, the VRC recommended moving forward with the 1 mg per participant dose for Phase 3.

ureters [5] = test: Contrast quantification / contrast enhancement factor (CEF) from surgical video frames of ureters, laparoscopic/minimally invasive colorectal surgery (Phase 2); format: in vivo, human; details: for contrast quantification: single subject, 1.0 mg dose
Protocol: The following example illustrates using contrast quantification, according to method 100, to assess the visual effectiveness of different fluorescence imaging agent doses. In this example, subjects undergoing laparoscopic/minimally invasive colorectal surgery received doses of either 0.3 mg, 1.0 mg, or 3 mg of pudexacianinium chloride (Chemical formula (A))—an indocyanine-green derivative fluorescence imaging agent with hydrophilic properties and rapid urinary clearance without metabolism after intravenous administration—at the start of the minimally invasive surgery procedure and the normal colectomy was completed.
At pre-specified time intervals during the surgery, the surgeon utilized a fluorescence visualization system to examine the retroperitoneum and attempted to visualize the ureters. The surgical videos generated by the fluorescence visualization system were recorded. Frames from these surgical videos were analyzed according to method 100 to quantify the color contrast observable by the surgeon when a bolus of the fluorescence imaging agent passed through the ureters.
Baseline and fluorescence-containing images for a subject who received a 1.0 mg dose of the fluorescence imaging agent are illustrated in FIG. 5—baseline image 400 and fluorescence-containing image 402. The color images 400, 402 are full color surgical video frames generated by a fluorescence visualization system that combines full color and fluorescence frames into a combined frame in which the fluorescence signal is captured in the green component of the frame. The color images 400, 402 capture a portion of a ureter, which is visible in bright green in fluorescence-containing image 402. The fluorescence-containing image 402 was captured while a bolus of the fluorescence imaging agent was present in the portion of the ureter within the field of view, and the baseline image 400 was captured shortly after the bolus of the fluorescence imaging agent had at least partially passed through the portion of the ureter.
Each of the color images 400, 402 was imported in a video analysis software and exported as separate greyscale bitmaps of the red (R), green (G) and blue (B) color components corresponding to each full color image frame.
Next, a line was plotted that transects the ureter at the same location on both the fluorescence-containing and baseline bitmaps for each R, G, and B color component. Graphs were subsequently created that plot the bitmap signal intensity values at each point along the line segment against position on the line segment for each line segment in each color component. Red, green and blue graphs were constructed for each pair of fluorescence-containing — baseline color components. Exemplary graphs are illustrated in FIGS. 7A-C, which include the graphs for each color component for the fluorescence-containing image (“dye”) and baseline image (“no-dye”) on the same plot. FIG. 7A is the graph for the red color component for the fluorescence-containing and baseline images, FIG. 7B is the graph for the blue color component for the fluorescence-containing and baseline images, and FIG. 7C is the graph for the green color component for the fluorescence-containing and baseline images,
At least the graph for the green component was then analyzed to identify, according to steps 104 and 106 of method 100, regions along the line segment (shown in FIG. 7D as position 0-300) that—by comparison with the bitmap—lie clearly inside the anatomical boundaries of the ureter (a region encompassed by the anatomy of interest according to step 104) or clearly outside of those same anatomical boundaries (a region not encompassed by the anatomy of interest according to step 106). Note that the “inside” and “outside” regions are different for the fluorescence imaging agent (“dye”) and baseline (“no Dye”) images due to the differences in the field of view of the color images. […]

[6] = Dye in ureter, 1 mg (N = 6) including expansion
[7] = No Dye in ureter, 0.3 mg (N = 3)
[8] = No Dye in ureter, 1 mg (N = 6) including expansion

In the case of pudexacianinium chloride, the “urine concentration of pudexacianinium” value [1] is reported as 1 to 6 µg/mL, the visibility of ureters (ureters [2]) is reported as “readily visible” and the “concentration at which fluorescence intensity tended to plateau” value [3] is reported as “greater than or equal to 100 μg/mL”. The “animals demonstrating ureteral visualization for three hours” value (ureters [4]; 0.001 mg/kg intravenously) was “one out of three”, the “animals showing ureteral visualization for the full three hour observation period” value (ureters [4]; 0.01 mg/kg intravenously) was “three out of three” and the “NIR-F Intensity” value (pig ureters ex vivo; 0.01 ug/mL) was 0.000 arbitrary units. For the same substance, the “NIR-F Intensity” value (pig ureters ex vivo; 0.03 ug/mL) was 4.672 arbitrary units, the “NIR-F Intensity” value (pig ureters ex vivo; 0.1 ug/mL) was 47.945 arbitrary units and the “NIR-F Intensity” value (pig ureters ex vivo; 0.3 ug/mL) was 125.078 arbitrary units. The “NIR-F Intensity” value (pig ureters ex vivo; 1.0 ug/mL) was 229.504 arbitrary units, the “NIR-F Intensity” value (pig ureters ex vivo; 3.0 ug/mL) was 254.867 arbitrary units and the “NIR-F Intensity” value (pig ureters ex vivo; 10 ug/mL) was 254.808 arbitrary units. For the same substance, the “concentration at which NIR-F intensity tended to plateau” value (pig ureters ex vivo; 0.01-10 μg/mL in pig ureters ex vivo) was no less than 1 µg/mL, the “VRC: adequacy for ureter(s) visualization” value (ureter(s); 0.3 mg per participant) was “inadequate for ureter(s) visualization” and the “VRC: ureter(s) visualization” value (ureter(s); 1 mg per participant, during procedure, at beginning and end) was “provided ureter(s) visualization during the surgical procedure”. For the same substance, the “VRC: difference in ureter(s) visualization between doses” value (ureter(s); 1 mg vs 3 mg dose) was “no notable differences”, the “VRC conclusion on ureter visualization under NIR-F conditions” value (ureter(s); all doses (0.3, 1, 3 mg per participant)) was “enhanced visualization of ureter(s)” and the “VRC: visualization throughout the duration of the surgical procedure” value (ureter(s); single dose of 1 mg and 3 mg per participant) was “consistently occurred”. The “Contrast quantification, Mean” value (ureters [5]; 0.3 mg, N 3, Baseline image) was 1.10, the “Contrast quantification, Mean” value (ureters [5]; 0.3 mg, N 3, Fluorescence-containing image) was 1.84 and the “proportion of data with CEF above 1.5” value (ureters [5]; 1 mg and 3 mg, dye) was no less than 90%. For the same substance, the “Contrast quantification, Mean” value (ureters [5]; 1.0 mg, N 6, Fluorescence-containing image (first column of the dose)) was 2.55, the “Contrast quantification, Mean” value (ureters [5]; 1.0 mg, N 6, head printed Fluorescence-containing image (second column of the dose)) was 1.06 and the “Contrast quantification, Mean” value (ureters [5]; 3.0 mg, N 3, Fluorescence-containing image (first column of the dose)) was 3.23. For the same substance, the “Contrast quantification, Mean” value (ureters [5]; 3.0 mg, N 3, head printed Fluorescence-containing image (second column of the dose)) was 1.09, the “CEF, Mean (SD)” value (ureters [5]; Dye in ureter, 0.3 mg (N = 3)) was 1.84 (0.46) and the “CEF, Median” value (ureters [5]; Dye in ureter, 0.3 mg (N = 3)) was 1.77. For the same substance, the “CEF, Min-Max” value (ureters [5]; Dye in ureter, 0.3 mg (N = 3)) was 1.3-3.0, the “CEF, Mean (SD)” value (ureters [5]; Dye in ureter, 1 mg (N = 3)) was 2.97 (1.03) and the “CEF, Median” value (ureters [5]; Dye in ureter, 1 mg (N = 3)) was 2.96. The “CEF, Min-Max” value (ureters [5]; Dye in ureter, 1 mg (N = 3)) was 1.6-5.6, the “CEF, Mean (SD)” value (ureters [5]; [6]) was 2.55 (0.95) and the “CEF, Median” value (ureters [5]; [6]) was 2.28. The “CEF, Min-Max” value (ureters [5]; [6]) was 1.3-5.6, the “CEF, Mean (SD)” value (ureters [5]; Dye in ureter, 3 mg (N = 3)) was 3.23 (1.70) and the “CEF, Median” value (ureters [5]; Dye in ureter, 3 mg (N = 3)) was 2.64. For the same substance, the “CEF, Min-Max” value (ureters [5]; Dye in ureter, 3 mg (N = 3)) was 1.2-7.7, the “CEF, Mean (SD)” value (ureters [5]; [7]) was 1.10 (0.13) and the “CEF, Median” value (ureters [5]; [7]) was 1.05. The “CEF, Min-Max” value (ureters [5]; [7]) was 0.9-1.3, the “CEF, Mean (SD)” value (ureters [5]; No Dye in ureter, 1 mg (N = 3)) was 1.06 (0.12) and the “CEF, Median” value (ureters [5]; No Dye in ureter, 1 mg (N = 3)) was 1.07. For the same substance, the “CEF, Min-Max” value (ureters [5]; No Dye in ureter, 1 mg (N = 3)) was 0.8-1.3, the “CEF, Mean (SD)” value (ureters [5]; [8]) was 1.06 (0.12) and the “CEF, Median” value (ureters [5]; [8]) was 1.06. The “CEF, Min-Max” value (ureters [5]; [8]) was 0.8-1.4, the “CEF, Mean (SD)” value (ureters [5]; No Dye in ureter, 3 mg (N = 3)) was 1.09 (0.10) and the “CEF, Median” value (ureters [5]; No Dye in ureter, 3 mg (N = 3)) was 1.10. The “CEF, Min-Max” value (ureters [5]; No Dye in ureter, 3 mg (N = 3)) was 0.7-1.2, the contrast quantification (ureters [5]; baseline image) was 1.3 and the “contrast quantification value for the baseline images” value (ureters [5]; baseline images, absence of bolus) was “around 1”. The contrast quantification (ureters [5]; fluorescence imaging agent image) was 2.0, the “CEF value, all data points” value (ureters [5]; no dye conditions) was “below 1.5” and the “reference CEF” value (ureters [5]; no dye present in the ureter) was roughly 1.
